Activity data for 3 compounds are collected here from ChEMBL document CHEMBL5715954, “Silencing c-Myc translation as a therapeutic strategy through targeting PI3Kδ and CK1ε in hematological malignancies” (Blood, 2017).

Holding throughout (design): scale not given: the % may be the effect or the level left
The target of experiment [1] is T1, TGF-beta receptor type-1 (Homo sapiens) (UniProt P36897).
T1 sequence (whole entry): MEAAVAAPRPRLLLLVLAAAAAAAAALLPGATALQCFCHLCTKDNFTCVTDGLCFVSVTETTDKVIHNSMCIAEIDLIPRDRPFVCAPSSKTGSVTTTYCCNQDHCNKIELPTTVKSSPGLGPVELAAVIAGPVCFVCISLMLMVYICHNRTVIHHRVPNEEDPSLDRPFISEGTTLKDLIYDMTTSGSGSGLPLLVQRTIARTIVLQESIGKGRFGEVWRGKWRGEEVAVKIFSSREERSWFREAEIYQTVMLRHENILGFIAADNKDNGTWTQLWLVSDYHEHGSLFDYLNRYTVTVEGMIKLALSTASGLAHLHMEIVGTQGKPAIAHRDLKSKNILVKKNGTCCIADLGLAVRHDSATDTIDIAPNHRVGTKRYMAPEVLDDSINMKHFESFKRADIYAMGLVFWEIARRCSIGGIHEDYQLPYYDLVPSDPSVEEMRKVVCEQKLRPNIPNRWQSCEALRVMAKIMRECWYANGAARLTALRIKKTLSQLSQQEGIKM
In words: Inhibition of human ALK5 assessed as enzyme activity at 1 uM using casein as substrate preincubated for 20 mins followed by [gamma-33P]-ATP addition and measured after 120 mins by radiometric Hot-SpotSM Kinase assay relative to control.

Experiment [2] has as its target Cyclin-dependent kinase 14/Cyclin-Y (Homo sapiens) (UniProt O94921+Q8ND76). As to the kind of experiment: Inhibition of human CDK14/cyclin Y assessed as enzyme activity at 1 uM using RB Protein as substrate preincubated for 20 mins followed by [gamma-33P]-ATP addition and measured after 120 mins by radiometric Hot-SpotSM Kinase assay relative to control. Type of experiment: protein-complex assay.

The target in experiment [3] is Cyclin-dependent kinase 4/cyclin D1 (Homo sapiens) (UniProt P11802+P24385). As to the kind of experiment: Inhibition of human CDK4/cyclin D1 assessed as enzyme activity at 1 uM using RB Protein as substrate preincubated for 20 mins followed by [gamma-33P]-ATP addition and measured after 120 mins by radiometric Hot-SpotSM Kinase assay relative to control. Type of experiment: protein-complex assay.

Experiment [4] deals with Dual specificity protein kinase CLK4 (Homo sapiens) (UniProt Q9HAZ1). As to the kind of experiment: Inhibition of human CLK4 assessed as enzyme activity at 1 uM using myelin basic protein as substrate preincubated for 20 mins followed by [gamma-33P]-ATP addition and measured after 120 mins by radiometric Hot-SpotSM Kinase assay relative to control.
The target in experiment [5] is Serine/threonine-protein kinase/endoribonuclease IRE1 (Homo sapiens) (UniProt O75460). As to the kind of experiment: Inhibition of human ERN1 assessed as enzyme activity at 1 uM using myelin basic protein as substrate preincubated for 20 mins followed by [gamma-33P]-ATP addition and measured after 120 mins by radiometric Hot-SpotSM Kinase assay relative to control.
Serine/threonine-protein kinase/endoribonuclease IRE1 (Homo sapiens), sequence (O75460 19-977 limits assumed): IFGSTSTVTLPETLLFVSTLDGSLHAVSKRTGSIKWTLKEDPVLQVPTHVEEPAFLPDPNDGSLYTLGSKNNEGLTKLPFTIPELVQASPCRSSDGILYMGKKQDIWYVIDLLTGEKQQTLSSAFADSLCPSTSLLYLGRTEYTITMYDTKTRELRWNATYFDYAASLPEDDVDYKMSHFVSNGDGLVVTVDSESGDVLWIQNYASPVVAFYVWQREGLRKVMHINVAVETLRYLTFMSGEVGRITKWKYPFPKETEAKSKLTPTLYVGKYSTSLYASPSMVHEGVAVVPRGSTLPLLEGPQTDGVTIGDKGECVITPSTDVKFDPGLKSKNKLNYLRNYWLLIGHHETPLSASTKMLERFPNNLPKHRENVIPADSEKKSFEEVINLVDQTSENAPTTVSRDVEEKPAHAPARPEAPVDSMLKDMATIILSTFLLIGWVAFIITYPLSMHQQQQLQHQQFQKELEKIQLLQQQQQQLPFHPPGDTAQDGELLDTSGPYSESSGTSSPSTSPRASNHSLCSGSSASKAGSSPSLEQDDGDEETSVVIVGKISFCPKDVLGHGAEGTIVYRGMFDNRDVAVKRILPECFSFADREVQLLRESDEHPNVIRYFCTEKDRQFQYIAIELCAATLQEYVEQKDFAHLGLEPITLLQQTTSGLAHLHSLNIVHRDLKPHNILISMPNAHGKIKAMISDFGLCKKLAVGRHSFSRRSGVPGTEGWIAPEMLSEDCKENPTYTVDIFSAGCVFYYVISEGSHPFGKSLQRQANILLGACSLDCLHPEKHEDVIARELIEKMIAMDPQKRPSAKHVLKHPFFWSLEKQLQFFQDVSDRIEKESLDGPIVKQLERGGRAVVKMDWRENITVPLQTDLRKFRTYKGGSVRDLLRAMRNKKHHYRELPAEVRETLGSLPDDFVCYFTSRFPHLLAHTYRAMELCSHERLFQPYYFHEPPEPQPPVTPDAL

The target of experiment [6] is Mitogen-activated protein kinase kinase kinase kinase 4 (Homo sapiens) (UniProt O95819). In words: Inhibition of human HGK assessed as enzyme activity at 1 uM using myelin basic protein as substrate preincubated for 20 mins followed by [gamma-33P]-ATP addition and measured after 120 mins by radiometric Hot-SpotSM Kinase assay relative to control.
Mitogen-activated protein kinase kinase kinase kinase 4 (Homo sapiens), sequence (O95819 2-1239 limits assumed): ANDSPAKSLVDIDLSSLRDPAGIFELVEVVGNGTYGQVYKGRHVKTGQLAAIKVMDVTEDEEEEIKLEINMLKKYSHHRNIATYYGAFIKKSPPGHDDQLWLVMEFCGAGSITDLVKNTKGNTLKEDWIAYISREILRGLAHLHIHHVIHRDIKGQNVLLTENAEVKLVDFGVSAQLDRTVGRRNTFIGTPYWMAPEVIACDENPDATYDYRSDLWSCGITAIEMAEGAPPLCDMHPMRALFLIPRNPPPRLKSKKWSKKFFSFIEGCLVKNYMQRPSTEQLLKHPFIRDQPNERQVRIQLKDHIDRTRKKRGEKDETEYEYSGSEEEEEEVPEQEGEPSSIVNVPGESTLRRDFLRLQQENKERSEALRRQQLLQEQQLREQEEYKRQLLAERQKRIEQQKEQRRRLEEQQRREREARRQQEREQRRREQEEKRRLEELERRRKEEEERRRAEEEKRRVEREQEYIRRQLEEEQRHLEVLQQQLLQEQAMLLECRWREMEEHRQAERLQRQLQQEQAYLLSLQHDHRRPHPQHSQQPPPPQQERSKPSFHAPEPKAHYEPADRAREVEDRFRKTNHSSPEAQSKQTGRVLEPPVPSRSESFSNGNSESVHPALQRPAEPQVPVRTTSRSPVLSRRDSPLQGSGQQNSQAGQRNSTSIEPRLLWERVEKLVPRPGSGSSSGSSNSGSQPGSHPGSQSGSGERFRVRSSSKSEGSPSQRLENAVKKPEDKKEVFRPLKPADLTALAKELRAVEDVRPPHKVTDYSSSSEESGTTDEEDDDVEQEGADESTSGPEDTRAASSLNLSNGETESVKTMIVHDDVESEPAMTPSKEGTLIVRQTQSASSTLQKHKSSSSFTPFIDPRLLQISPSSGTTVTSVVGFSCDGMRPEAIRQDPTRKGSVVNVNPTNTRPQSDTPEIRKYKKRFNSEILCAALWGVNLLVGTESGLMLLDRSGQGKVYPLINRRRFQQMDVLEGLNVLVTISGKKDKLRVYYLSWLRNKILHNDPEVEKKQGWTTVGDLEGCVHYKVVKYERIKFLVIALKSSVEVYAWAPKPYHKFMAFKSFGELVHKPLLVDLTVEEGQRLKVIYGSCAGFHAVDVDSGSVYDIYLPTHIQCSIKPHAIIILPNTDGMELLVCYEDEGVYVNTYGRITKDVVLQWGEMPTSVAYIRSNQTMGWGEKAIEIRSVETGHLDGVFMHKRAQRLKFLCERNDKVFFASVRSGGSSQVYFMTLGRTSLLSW
Experiment [7] concerns the target Homeodomain-interacting protein kinase 1 (Homo sapiens) (UniProt Q86Z02). In words: Inhibition of human HIPK1 assessed as enzyme activity at 1 uM using myelin basic protein as substrate preincubated for 20 mins followed by [gamma-33P]-ATP addition and measured after 120 mins by radiometric Hot-SpotSM Kinase assay relative to control.
Experiment [8] concerns the target Homeodomain-interacting protein kinase 3 (Homo sapiens) (UniProt Q9H422). In words: Inhibition of human HIPK3 assessed as enzyme activity at 1 uM using myelin basic protein as substrate preincubated for 20 mins followed by [gamma-33P]-ATP addition and measured after 120 mins by radiometric Hot-SpotSM Kinase assay relative to control.
Experiment [9] deals with T2, Serine/threonine-protein kinase D1 (Homo sapiens) (UniProt Q15139).
T2 sequence (whole entry): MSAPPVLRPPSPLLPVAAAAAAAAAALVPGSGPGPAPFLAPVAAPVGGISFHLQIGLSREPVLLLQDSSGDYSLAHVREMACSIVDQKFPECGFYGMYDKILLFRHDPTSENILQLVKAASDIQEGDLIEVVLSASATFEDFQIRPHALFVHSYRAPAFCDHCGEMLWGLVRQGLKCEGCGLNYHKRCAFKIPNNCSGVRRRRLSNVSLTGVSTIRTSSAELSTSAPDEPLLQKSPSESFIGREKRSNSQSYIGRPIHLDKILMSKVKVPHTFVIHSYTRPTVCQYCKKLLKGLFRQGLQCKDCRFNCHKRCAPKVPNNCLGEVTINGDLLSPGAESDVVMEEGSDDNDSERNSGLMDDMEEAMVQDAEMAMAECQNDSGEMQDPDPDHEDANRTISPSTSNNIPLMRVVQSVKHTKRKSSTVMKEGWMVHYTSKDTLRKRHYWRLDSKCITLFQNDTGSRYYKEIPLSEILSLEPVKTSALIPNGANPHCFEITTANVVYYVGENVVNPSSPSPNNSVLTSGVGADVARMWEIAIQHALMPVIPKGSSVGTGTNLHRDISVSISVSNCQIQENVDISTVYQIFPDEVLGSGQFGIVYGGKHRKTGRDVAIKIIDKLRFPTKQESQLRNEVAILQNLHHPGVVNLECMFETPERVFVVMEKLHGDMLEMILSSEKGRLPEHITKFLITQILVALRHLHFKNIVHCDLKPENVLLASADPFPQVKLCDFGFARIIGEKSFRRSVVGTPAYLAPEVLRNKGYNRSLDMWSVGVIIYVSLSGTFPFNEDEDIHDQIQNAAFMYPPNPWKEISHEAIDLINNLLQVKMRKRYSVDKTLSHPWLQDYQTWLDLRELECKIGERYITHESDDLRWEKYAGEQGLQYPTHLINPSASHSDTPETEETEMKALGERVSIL
As to the kind of experiment: Inhibition of human PKCmu assessed as enzyme activity at 1 uM using KKLNRTLSVA as substrate preincubated for 20 mins followed by [gamma-33P]-ATP addition and measured after 120 mins by radiometric Hot-SpotSM Kinase assay relative to control.

Experiment [10] has as its target Serine/threonine-protein kinase 33 (Homo sapiens) (UniProt Q9BYT3). In words: Inhibition of human STK33 assessed as enzyme activity at 1 uM using myelin basic protein as substrate preincubated for 20 mins followed by [gamma-33P]-ATP addition and measured after 120 mins by radiometric Hot-SpotSM Kinase assay relative to control.
Experiment [11] deals with BDNF/NT-3 growth factors receptor (Homo sapiens) (UniProt Q16620). As to the kind of experiment: Inhibition of human TRKB assessed as enzyme activity at 1 uM using poly[Glu:Tyr] (4:1) as substrate preincubated for 20 mins followed by [gamma-33P]-ATP addition and measured after 120 mins by radiometric Hot-SpotSM Kinase assay relative to control.
BDNF/NT-3 growth factors receptor (Homo sapiens), sequence (Q16620 32-822 limits assumed): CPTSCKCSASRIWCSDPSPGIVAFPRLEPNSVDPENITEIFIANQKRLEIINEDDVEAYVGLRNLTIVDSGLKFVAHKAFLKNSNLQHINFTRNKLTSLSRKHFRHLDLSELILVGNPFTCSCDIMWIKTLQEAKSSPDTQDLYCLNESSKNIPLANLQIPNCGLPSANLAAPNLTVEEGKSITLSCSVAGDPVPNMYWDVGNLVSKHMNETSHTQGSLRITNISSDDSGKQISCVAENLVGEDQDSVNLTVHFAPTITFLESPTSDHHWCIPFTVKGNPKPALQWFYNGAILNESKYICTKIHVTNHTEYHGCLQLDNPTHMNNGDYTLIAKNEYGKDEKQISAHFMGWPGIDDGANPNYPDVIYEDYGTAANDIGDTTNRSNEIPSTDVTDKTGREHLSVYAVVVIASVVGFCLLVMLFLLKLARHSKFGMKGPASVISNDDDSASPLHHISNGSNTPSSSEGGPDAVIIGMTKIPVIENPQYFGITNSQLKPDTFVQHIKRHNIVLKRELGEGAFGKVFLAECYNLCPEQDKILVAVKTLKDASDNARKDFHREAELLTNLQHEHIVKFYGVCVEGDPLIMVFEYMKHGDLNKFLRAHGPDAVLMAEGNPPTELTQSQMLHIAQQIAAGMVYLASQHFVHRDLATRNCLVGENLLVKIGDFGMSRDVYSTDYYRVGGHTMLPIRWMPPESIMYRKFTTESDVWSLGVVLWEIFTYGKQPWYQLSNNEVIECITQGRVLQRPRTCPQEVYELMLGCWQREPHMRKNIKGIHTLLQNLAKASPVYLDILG
Experiment [12] has as its target Leukocyte tyrosine kinase receptor (Homo sapiens) (UniProt P29376). As to the kind of experiment: Inhibition of human TYK1/LTK assessed as enzyme activity at 1 uM using EAIYAAPFAKKK as substrate preincubated for 20 mins followed by [gamma-33P]-ATP addition and measured after 120 mins by radiometric Hot-SpotSM Kinase assay relative to control.

Homeodomain-interacting protein kinase 1 (Homo sapiens), sequence (Q86Z02 whole entry, looked up): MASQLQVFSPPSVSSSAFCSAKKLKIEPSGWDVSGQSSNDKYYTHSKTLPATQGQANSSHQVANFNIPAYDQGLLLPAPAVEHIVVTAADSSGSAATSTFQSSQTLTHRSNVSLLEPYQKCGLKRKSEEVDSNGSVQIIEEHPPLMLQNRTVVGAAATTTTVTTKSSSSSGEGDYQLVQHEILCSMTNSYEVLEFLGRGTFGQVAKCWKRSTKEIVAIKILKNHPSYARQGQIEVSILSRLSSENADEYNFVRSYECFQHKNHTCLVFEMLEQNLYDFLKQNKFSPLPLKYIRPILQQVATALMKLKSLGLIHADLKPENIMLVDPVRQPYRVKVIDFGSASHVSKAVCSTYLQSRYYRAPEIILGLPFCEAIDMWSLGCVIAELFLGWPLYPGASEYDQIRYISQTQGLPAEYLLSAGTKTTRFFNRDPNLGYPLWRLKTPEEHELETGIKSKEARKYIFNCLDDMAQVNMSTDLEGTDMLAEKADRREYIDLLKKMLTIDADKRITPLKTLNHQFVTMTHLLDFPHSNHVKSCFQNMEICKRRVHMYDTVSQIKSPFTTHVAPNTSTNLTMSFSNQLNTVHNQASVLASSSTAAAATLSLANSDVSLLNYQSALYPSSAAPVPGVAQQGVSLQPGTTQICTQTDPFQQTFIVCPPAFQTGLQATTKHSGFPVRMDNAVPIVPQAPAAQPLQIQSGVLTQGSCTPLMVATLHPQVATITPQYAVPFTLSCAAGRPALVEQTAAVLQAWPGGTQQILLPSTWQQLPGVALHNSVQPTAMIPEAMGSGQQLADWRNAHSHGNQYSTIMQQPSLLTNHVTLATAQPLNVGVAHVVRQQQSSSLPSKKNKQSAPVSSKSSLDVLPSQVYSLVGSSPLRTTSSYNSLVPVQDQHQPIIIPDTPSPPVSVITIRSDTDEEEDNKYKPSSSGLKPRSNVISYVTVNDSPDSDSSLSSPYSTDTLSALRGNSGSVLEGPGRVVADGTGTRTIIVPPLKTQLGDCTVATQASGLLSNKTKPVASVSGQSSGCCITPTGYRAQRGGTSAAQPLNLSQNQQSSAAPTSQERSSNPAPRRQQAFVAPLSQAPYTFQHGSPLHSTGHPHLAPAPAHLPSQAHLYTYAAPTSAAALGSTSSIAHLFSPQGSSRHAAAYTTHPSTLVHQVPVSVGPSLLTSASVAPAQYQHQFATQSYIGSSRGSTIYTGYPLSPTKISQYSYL
Serine/threonine-protein kinase 33 (Homo sapiens), sequence (Q9BYT3 whole entry, looked up): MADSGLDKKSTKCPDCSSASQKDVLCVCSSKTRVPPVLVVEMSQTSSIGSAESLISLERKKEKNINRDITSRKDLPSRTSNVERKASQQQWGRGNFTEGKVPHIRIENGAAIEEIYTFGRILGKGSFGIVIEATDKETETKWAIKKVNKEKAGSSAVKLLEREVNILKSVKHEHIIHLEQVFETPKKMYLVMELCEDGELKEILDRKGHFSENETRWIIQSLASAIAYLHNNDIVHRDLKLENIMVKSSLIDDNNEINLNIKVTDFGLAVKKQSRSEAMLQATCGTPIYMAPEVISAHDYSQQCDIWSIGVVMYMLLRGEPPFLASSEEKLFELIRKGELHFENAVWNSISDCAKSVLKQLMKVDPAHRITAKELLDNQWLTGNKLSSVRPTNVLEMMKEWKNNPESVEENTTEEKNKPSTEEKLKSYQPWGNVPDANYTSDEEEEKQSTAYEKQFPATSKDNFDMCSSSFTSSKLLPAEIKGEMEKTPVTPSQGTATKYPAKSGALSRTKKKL

For `C[C@H](Nc1ncnc2nc[nH]c12)c1cc2cccc(Cl)c2c(=O)n1-c1ccccc1`, the Activity in experiment [1] is 108%; in [2] it was 85.3%; in experiment [3] it was 110%; in [4], 107%; in experiment [5] it was 97.3%; in experiment [6], 97.1%. In addition, the Activity was 103% in [7]; 105% in [8]; 96.1% in [9]; 101% in [10]; 95.8% in experiment [11]; 97.4% in experiment [12].

On to `CC[C@H](Nc1ncnc2[nH]cnc12)c1nc2cccc(F)c2c(=O)n1-c1ccccc1`, for which the Activity in experiment [1] was 108%; in experiment [2], 77.4%; in [3], 108%; in experiment [4], 103%; in [5], 96.4%; in [6] it was 93%. Besides, the Activity was 102% in experiment [7]; 108% in experiment [8]; 92.3% in experiment [9]; 101% in experiment [10]; 94.1% in experiment [11]; 94.8% in [12].

As for `CC(C)Oc1ccc(-c2nn([C@@H](C)c3oc4ccc(F)cc4c(=O)c3-c3cccc(F)c3)c3ncnc(N)c23)cc1F` [UMBRALISIB], the Activity in experiment [1] worked out at 109%; in experiment [2], 79.3%; in [3] it was 104%; in [4], 116%; in [5], 91.6%; in experiment [6] it was 97.1%. For the same compound, the Activity stood at 101% in experiment [7]; 103% in [8]; 92.7% in experiment [9]; 106% in experiment [10]; 96% in [11]; 92.5% in [12].
